Laboratory results published in ChEMBL document CHEMBL6078697, “Synthesis and Evaluation of 9-epi-Koshidacin B as Selective Inhibitor of Histone Deacetylase 1” (J Nat Prod, 2024).

Tests used:
[1] = Selectivity ratio of IC50 for inhibition of HDAC6 (unknown origin) to IC50 for inhibition of HDAC1 (unknown origin)
[2] = Selectivity ratio of IC50 for inhibition of HDAC4 (unknown origin) to IC50 for inhibition of HDAC1 (unknown origin)
[3] = target: T1, Histone deacetylase 1 (Homo sapiens, UniProt Q13547); experiment: Inhibition of HDAC1 (unknown origin) using RHKK(Ac)AMC as substrate
[4] = target: T1, Histone deacetylase 1; experiment: Binding affinity to HDAC1 (unknown origin) assessed as inhibition constant
[5] = target: T2, Protein deacetylase HDAC6 (Homo sapiens, UniProt Q9UBN7); experiment: Inhibition of HDAC6 (unknown origin) using RHKK(Ac)AMC as substrate
T2 sequence (Q9UBN7 whole entry): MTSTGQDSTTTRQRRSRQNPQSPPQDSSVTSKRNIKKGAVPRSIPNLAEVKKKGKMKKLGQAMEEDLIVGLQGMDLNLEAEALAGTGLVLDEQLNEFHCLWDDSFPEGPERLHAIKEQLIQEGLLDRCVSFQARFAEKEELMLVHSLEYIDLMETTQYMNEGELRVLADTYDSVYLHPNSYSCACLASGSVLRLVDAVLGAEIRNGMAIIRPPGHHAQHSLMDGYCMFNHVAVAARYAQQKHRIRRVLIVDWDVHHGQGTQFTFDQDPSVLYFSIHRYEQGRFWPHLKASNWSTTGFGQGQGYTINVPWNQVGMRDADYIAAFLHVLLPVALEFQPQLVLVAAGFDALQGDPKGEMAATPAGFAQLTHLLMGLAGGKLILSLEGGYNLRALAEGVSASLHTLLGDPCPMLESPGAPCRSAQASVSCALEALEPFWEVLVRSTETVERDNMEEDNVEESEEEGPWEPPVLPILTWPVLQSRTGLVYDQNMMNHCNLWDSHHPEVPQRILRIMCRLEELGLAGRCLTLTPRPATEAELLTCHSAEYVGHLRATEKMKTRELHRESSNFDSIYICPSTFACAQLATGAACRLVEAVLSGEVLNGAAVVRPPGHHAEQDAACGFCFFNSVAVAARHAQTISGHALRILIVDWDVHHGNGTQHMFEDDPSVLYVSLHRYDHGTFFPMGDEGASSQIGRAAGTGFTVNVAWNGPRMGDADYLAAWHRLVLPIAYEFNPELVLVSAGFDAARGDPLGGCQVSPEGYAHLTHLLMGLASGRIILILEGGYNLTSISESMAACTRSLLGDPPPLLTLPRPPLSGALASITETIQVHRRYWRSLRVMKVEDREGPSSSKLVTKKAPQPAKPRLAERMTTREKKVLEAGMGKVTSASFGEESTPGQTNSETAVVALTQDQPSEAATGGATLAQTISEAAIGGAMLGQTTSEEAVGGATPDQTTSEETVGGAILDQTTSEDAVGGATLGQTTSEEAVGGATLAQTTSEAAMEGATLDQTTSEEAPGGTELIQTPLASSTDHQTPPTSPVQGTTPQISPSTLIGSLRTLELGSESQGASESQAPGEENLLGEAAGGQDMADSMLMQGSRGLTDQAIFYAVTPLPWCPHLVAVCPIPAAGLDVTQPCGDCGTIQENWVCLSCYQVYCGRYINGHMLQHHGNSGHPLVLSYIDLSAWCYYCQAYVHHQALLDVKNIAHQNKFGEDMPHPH

[6] = target: Histone deacetylase 4 (Homo sapiens, UniProt P56524); experiment: Inhibition of HDAC4 (unknown origin) using trifluoroacetyl lysine as substrate
[7] = target: T1, Histone deacetylase 1; experiment: Inhibition of HDAC1 (unknown origin)

T1 sequence (Q13547 whole entry): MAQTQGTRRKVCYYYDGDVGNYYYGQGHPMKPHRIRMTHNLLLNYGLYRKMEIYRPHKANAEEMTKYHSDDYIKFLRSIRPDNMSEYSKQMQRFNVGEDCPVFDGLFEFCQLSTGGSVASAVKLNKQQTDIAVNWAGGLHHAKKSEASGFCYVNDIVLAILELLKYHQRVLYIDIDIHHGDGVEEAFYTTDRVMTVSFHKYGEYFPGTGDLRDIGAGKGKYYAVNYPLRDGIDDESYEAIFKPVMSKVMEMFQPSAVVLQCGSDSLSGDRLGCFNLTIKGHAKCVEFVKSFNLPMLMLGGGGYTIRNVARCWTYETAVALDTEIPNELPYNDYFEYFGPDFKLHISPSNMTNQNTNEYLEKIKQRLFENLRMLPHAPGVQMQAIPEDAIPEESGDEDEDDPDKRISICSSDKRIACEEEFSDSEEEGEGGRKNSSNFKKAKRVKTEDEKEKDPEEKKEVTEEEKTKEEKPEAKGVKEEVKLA
Sequence of Histone deacetylase 4 (P56524 whole entry): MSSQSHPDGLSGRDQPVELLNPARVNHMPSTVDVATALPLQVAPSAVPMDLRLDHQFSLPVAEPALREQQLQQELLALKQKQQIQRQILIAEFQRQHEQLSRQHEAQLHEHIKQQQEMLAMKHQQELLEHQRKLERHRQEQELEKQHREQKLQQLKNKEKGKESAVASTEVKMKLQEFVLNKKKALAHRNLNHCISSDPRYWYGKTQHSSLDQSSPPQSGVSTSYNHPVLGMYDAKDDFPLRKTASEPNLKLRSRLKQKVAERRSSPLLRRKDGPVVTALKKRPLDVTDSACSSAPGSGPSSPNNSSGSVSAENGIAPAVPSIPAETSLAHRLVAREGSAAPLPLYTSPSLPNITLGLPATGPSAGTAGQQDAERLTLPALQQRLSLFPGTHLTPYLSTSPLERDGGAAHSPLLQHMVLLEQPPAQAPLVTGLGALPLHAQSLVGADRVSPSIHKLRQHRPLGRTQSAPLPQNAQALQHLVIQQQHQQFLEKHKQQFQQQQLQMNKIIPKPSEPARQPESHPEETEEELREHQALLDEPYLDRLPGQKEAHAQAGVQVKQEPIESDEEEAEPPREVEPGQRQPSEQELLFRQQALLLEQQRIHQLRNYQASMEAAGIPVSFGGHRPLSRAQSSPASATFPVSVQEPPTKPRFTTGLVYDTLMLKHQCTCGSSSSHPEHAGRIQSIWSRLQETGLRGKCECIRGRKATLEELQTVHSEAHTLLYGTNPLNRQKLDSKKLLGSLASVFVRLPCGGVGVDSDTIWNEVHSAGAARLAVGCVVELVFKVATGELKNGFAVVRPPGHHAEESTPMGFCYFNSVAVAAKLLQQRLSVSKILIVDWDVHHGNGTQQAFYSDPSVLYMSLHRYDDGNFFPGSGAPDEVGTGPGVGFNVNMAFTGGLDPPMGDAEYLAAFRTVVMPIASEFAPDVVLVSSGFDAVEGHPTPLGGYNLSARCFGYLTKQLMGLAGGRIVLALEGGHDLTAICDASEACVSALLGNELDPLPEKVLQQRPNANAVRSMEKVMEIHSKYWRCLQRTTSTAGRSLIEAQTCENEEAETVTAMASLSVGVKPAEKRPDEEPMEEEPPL

Row | Compound | IC50 [3] [µM] | Ki [4] [µM] | other results
1 | CC1(C)NC(=O)[C@H](CCCCCC(=O)[C@H](O)CO)NC(=O)[C@H]2CCCN2C(=O)[C@H](Cc2ccccc2)NC1=O [listing 1 of 2 here] | – | – | Ratio IC50 [1]: 2200; Ratio IC50 [2]: 7000
2 | C[C@H](O)C(=O)CCCCC[C@@H]1NC(=O)[C@H]2CCCN2C(=O)[C@H](Cc2ccccc2)NC(=O)C(C)(C)NC1=O | 0.33 | – | –
3 | C[C@@H](O)C(=O)CCCCC[C@@H]1NC(=O)[C@H]2CCCN2C(=O)[C@H](Cc2ccccc2)NC(=O)C(C)(C)NC1=O | 0.03 | – | –
4 | CC1(C)NC(=O)[C@H](CCCCCC(=O)[C@H](O)CO)NC(=O)[C@H]2CCCN2C(=O)[C@H](Cc2ccccc2)NC1=O (stereo in doubt; form 1) | – | 5.65 | –
5 | CC1(C)NC(=O)[C@H](CCCCCC(=O)[C@@H]2CO2)NC(=O)[C@H]2CCCN2C(=O)[C@H](Cc2ccccc2)NC1=O | 0.00015 | – | IC50 [5]: 1.1 µM; IC50 [7]: 1.1 µM
6 | CC[C@]1(C)NC(=O)[C@H](CCCCCC(=O)[C@@H](C)O)NC(=O)[C@H]2CCCN2C(=O)[C@H](Cc2ccc(O)cc2)NC1=O | – | – | IC50 [7]: 0.0215 µM

More lines, main results first:

Row | IC50 [3] [µM] | Ki [4] [µM] | Compound | other results
7 | 0.145 | – | CC1(C)NC(=O)[C@H](CCCCCC(=O)[C@H](O)CO)NC(=O)[C@H]2CCCN2C(=O)[C@H](Cc2ccccc2)NC1=O [listing 2 of 2 here] | IC50 [5]: 319 µM; IC50 [6]: 1000 µM
8 | – | 15.8 | CC1(C)NC(=O)[C@H](CCCCCC(=O)[C@H](O)CO)NC(=O)[C@H]2CCCN2C(=O)[C@H](Cc2ccccc2)NC1=O (stereo in doubt; form 2) | –
9 | – | 22.1 | CC1(C)NC(=O)[C@H](CCCCCC(=O)[C@@H](O)CO)NC(=O)[C@H]2CCCN2C(=O)[C@H](Cc2ccccc2)NC1=O (stereo in doubt; form 2) | –
10 | – | 11.2 | CC1(C)NC(=O)[C@H](CCCCCC(=O)[C@@H](O)CO)NC(=O)[C@H]2CCCN2C(=O)[C@H](Cc2ccccc2)NC1=O (stereo in doubt; form 1) | –
